Measured values reported in PMC12679848, “Sulphonamide derivatives with a triazine core as novel inducers of apoptosis and pyroptosis in glioblastoma multiforme cells” (Journal of Enzyme Inhibition and Medicinal Chemistry, 2025).
Like-named read-outs stand apart in the source and are kept apart here.

What was measured:
C8-D1A = assay: MTT assay, C8-D1A astrocytes; type: cell-based; settings: C8-D1A mouse astrocytes, 24 h of incubation
Description: (§1) Human glioblastoma cell lines (A172 CRL-1620™, U-87 MG HTB-14™, U-118 MG HTB-15™, T98G CRL-1690™) and the mouse astrocyte cell line (C8-D1A CRL-2541™) were obtained from the American Type Culture Collection (ATCC, Manassas, VA, USA). The cell lines were cultured in complete medium: DMEM (Corning, Kennebunk, ME, USA) for C8-D1A and T98G, and EMEM (ATCC, Manassas, VA, USA) for A172, U-87 MG, U118MG. The media were supplemented with 10% foetal bovine serum (Eurx, Gdansk, Poland) and 1% penicillin-streptomycin solution (Corning, Kennebunk, ME, USA). Cells were cultured in cell culture flasks (Sarstedt, Numbrecht, Germany) at 37 °C in 5% CO2. For experiments, cells were washed with phosphate-buffered saline without calcium and magnesium (Corning, Kennebunk, ME, USA) and treated with 0.05% trypsin and 0.02% EDTA (Corning, Kennebunk, ME, USA). Cells were counted using a Sceptre 3.0 cell counter (Merck Millipore, Burlington, MA, USA) prior to seeding into plates. For 6-well plates, 5 x 10^5 cells/mL were seeded, while for 96-well plates (Sarstedt, Numbrecht, Germany), 1 x 10^5 cells/mL were seeded in 100 μL of the medium.
(§2) The cell lines were seeded in 96-well plates and cultured according to the methodology described in the previous section. Cells were then treated with the novel derivatives MM118 and MM119 and the reference compound temozolomide (TMZ) (Sigma-Aldrich, St. Louis, MO, USA) at concentrations of 0.1, 0.25, 0.5, 1.0, 2.5, 5.0, and 10.0 μM for 24 h. The MTT assay was performed using a solution of 3–(4,5-dimethyl-2-thiazolyl)-2,5-diphenyl-2H-tetrazolium bromide (Sigma-Aldrich, St. Louis, MO, USA) at a concentration of 5 mg/mL in phosphate-buffered saline without calcium and magnesium (Corning, Kennebunk, ME, USA). After 24 h incubation with test compounds, 10 μL MTT solution was added to each well, and cells were incubated for another 2 h at 37 °C. The cells were then lysed in 100 μL lysis buffer (25 mM HCl, 2% acetic acid, 3% DMF, and 5% SDS, adjusted to pH 4.7). Absorbance was measured at 570 nm using an Absorbance 96 microplate reader (Byonoy GmbH, Hamburg, Germany).

U-87 MG = assay: MTT assay, U-87 MG; type: cell-based; settings: Homo sapiens, 24 h of incubation
Description: as §1, §2

DNA = tested on: DNA; set-up: method as in PMID 36835469; settings: comet assays; cited from earlier work
U-118 MG = assay: MTT assay, U-118 MG; type: cell-based; settings: Homo sapiens, 24 h of incubation, read-out: IC50 values ± SEM, MTT assay
Description: as §1, §2

A172 = assay: MTT assay, A172; type: cell-based; settings: Homo sapiens, A172, 24 h of incubation
Description: as §1, §2

T98G = assay: MTT assay, T98G; type: cell-based; settings: Homo sapiens, 24 h of incubation
Description: as §1, §2

[1] = 24 h, heading: IC50 values ± SEM, MTT assay
[2] = read-out: IC50 values ± SEM, MTT assay
[3] = A 172, read-out: IC50 values ± SEM, MTT assay

IC50 (U-87 MG; [1]) [µM] | IC50 (U-87 MG; [2]) [µM] | Structure (SMILES) | IC50 (C8-D1A; [1]) [µM] | DNA damage (single-strand and double-strand breaks) (DNA) | IC50 (U-118 MG) [µM] | IC50 (C8-D1A; [2]) [µM] | IC50 (A172; [3]) [µM] | IC50 (T98G; [2]) [µM] | IC50 (A172; A 172, 24 h, heading: IC50 values ± SEM, MTT assay) [µM] | IC50 (T98G; [1]) [µM]
2.35 | – | COC(=O)C1CC(O)CN1S(=O)(=O)c1ccc(-n2nc(C)c3nc4nnnn4nc32)cc1 (stereo not shown) [MM129, Methyl (Z)-4-hydroxy-1-[4–(7-methyl-5H-pyrazolo[4,3-e]tetrazolo[1,5-b][1]^,[2]^,[4]triazin-5-yl)phenyl-sulfonyl]pyrrolidine-2-carboxylate] | 2.86 | induce DNA damage | – | – | – | – | – | –
– | > 10 | Cc1nn(-c2ccc(S(=O)(=O)NC[C@H](O)CO)cc2)c2nn3nnnc3nc12 [MM126] | – | – | > 10 | > 10 | > 10 | > 10 | – | –

More lines, now with the values behind:

Structure (SMILES) | IC50 (U-87 MG; [1]) [µM] | IC50 (U-87 MG; [2]) [µM] | IC50 (C8-D1A; [1]) [µM] | DNA damage (single-strand and double-strand breaks) (DNA) | IC50 (U-118 MG) [µM] | IC50 (C8-D1A; [2]) [µM] | IC50 (A172; [3]) [µM] | IC50 (T98G; [2]) [µM] | IC50 (A172; A 172, 24 h, heading: IC50 values ± SEM, MTT assay) [µM] | IC50 (T98G; [1]) [µM]
Cc1nn(-c2ccc(S(=O)(=O)N[C@H](C)CO)cc2)c2nn3nnnc3nc12 [MM131] | – | – | – | induce DNA damage | – | – | – | – | – | –
Cc1nn(-c2ccc(S(=O)(=O)NC[C@@H](O)CO)cc2)c2nn3nnnc3nc12 [MM127] | – | > 10 | – | – | > 10 | > 10 | > 10 | > 10 | – | –
COC(=O)C1CCCN1S(=O)(=O)c1ccc(-n2nc(C)c3nc4nnnn4nc32)cc1 (stereo not shown) [MM128, Methyl 1-[4–(7-methyl-5H-pyrazolo[4,3-e]tetrazolo[1,5-b][1]^,[2]^,[4]triazin-5-yl)phenylsulfonyl]-pyrrolidine-2-carboxylate] | – | – | – | – | 563 | – | – | – | 1.65 | 1.53
Cc1nn(-c2ccc(S(=O)(=O)N[C@@H](CO)CC(C)C)cc2)c2nn3nnnc3nc12 [MM124] | – | > 10 | – | – | > 10 | > 10 | > 10 | > 10 | – | –
